pEC50, pIC50, pKi: −log10 of the molar value. Residues, ends and D or L forms follow the SMILES beside them.
Key:
[1] = biological target: T1, Neuropeptide Y receptor type 4 (Homo sapiens, UniProt P50391); assay: Displacement of Cy5-[K4]hPP from human Y4 receptor expressed in CHO cells after 90 to 120 mins by flow cytometry; format: cell-based
[2] = biological target: T2, Neuropeptide Y receptor type 5 (Homo sapiens, UniProt Q15761); assay: Displacement of Cy5-pNPY from human Y5 receptor expressed in human HEC-1B cells after 90 to 120 mins by flow cytometry; format: cell-based
T2 sequence (Q15761 whole entry): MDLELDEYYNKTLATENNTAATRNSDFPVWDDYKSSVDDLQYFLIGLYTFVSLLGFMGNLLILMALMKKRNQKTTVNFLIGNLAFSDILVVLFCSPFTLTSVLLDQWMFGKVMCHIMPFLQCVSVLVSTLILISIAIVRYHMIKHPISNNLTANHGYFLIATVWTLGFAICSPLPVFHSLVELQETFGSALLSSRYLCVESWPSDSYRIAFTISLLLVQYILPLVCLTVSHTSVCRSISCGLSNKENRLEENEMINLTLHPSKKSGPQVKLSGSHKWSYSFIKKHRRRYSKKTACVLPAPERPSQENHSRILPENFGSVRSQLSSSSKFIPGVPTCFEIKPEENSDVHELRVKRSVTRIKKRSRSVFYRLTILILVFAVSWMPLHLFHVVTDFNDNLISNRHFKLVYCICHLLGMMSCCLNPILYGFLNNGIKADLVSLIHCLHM

[3] = biological target: T3, Neuropeptide Y receptor type 2 (Homo sapiens, UniProt P49146); assay: Displacement of Cy5-pNPY from human Y2 receptor expressed in CHO cells after 90 to 120 mins by flow cytometry; format: cell-based
T3 sequence (P49146 whole entry): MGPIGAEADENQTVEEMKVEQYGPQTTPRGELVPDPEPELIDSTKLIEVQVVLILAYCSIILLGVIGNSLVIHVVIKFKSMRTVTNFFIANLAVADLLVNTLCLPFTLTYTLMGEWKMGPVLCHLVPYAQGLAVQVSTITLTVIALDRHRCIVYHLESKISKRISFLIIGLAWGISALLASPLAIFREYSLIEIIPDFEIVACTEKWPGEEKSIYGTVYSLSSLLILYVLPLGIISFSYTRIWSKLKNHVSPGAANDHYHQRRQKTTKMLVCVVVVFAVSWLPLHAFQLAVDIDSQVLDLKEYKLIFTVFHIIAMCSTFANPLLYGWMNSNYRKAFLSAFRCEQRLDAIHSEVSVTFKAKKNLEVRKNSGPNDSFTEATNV

[4] = biological target: T1, Neuropeptide Y receptor type 4; assay: Binding affinity to human Y4 receptor
[5] = biological target: T4, Neuropeptide Y receptor type 1 (Homo sapiens, UniProt P25929); assay: Displacement of Cy5-pNPY from human Y1 receptor expressed in HEL cells after 90 to 120 mins by flow cytometry; format: cell-based
T4 sequence (P25929 whole entry): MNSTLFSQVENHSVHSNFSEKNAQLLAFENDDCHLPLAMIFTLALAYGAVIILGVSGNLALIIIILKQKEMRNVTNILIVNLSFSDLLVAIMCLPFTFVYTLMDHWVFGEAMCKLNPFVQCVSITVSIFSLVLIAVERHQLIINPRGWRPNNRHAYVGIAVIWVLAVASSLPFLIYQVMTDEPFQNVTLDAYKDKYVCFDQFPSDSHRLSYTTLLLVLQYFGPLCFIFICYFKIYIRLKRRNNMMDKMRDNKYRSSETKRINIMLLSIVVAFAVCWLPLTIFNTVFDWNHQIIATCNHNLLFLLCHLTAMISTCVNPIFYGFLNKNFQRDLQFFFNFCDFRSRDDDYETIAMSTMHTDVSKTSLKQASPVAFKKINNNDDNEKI

[6] = biological target: T1, Neuropeptide Y receptor type 4; assay: Agonist activity at human Y4 receptor
[7] = biological target: T4, Neuropeptide Y receptor type 1; assay: Binding affinity to Y1 receptor (unknown origin)
[8] = biological target: T2, Neuropeptide Y receptor type 5; assay: Binding affinity to Y5 receptor (unknown origin)
[9] = biological target: T1, Neuropeptide Y receptor type 4; assay: Partial agonist activity at human Y4 receptor expressed in sf9 cells assessed as hydrolysis of [gamma-33P]GTP after 2 mins by scintillation counting analysis
[10] = biological target: T1, Neuropeptide Y receptor type 4; assay: Partial agonist activity at human Y4 receptor expressed in sf9 cells assessed as hydrolysis of [gamma-33P]GTP after 2 mins by scintillation counting analysis relative to hPP
[11] = biological target: T1, Neuropeptide Y receptor type 4; assay: Agonist activity at human Y4 receptor expressed in sf9 cells assessed as hydrolysis of [gamma-33P]GTP after 2 mins by scintillation counting analysis
[12] = biological target: T3, Neuropeptide Y receptor type 2; assay: Binding affinity to Y2 receptor (unknown origin) expressed in human LN319 cells by radioligand binding assay; format: cell-based
[13] = biological target: T3, Neuropeptide Y receptor type 2; assay: Binding affinity to human Y2 receptor expressed in human SMS-KAN cells by radioligand binding assay; format: cell-based
[14] = Binding affinity to rabbit kidney Y2 receptor by radioligand binding assay; set-up: species or system Oryctolagus cuniculus
[15] = Binding affinity to Y2 receptor (unknown origin); set-up: species or system Homo sapiens

T1 sequence (P50391 whole entry): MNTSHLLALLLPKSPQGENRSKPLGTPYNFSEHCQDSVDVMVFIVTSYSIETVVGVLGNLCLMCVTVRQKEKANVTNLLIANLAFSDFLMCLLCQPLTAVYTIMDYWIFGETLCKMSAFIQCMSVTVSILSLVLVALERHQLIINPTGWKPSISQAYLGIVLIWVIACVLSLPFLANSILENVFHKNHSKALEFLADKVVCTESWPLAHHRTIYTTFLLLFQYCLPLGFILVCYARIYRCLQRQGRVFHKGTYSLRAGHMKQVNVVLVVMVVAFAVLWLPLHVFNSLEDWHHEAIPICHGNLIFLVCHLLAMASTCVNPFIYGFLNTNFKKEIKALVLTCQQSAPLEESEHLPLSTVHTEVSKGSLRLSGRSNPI

CC[C@H](C)[C@H](NC(=O)[C@H](CC(C)C)NC(=O)[C@H](CCSC)NC(=O)[C@H](CC(N)=O)NC(=O)[C@@H](NC(=O)[C@H](Cc1ccc(O)cc1)NC(=O)[C@H](CCCNC(=N)N)NC(=O)[C@H](CCCNC(=N)N)NC(=O)[C@H](CC(C)C)NC(=O)[C@H](CC(=O)O)NC(=O)[C@H](C)NC(=O)[C@H](C)NC(=O)[C@H](Cc1ccc(O)cc1)NC(=O)[C@H](CCC(N)=O)NC(=O)[C@H](C)NC(=O)[C@H](CCSC)NC(=O)[C@H](CCC(N)=O)NC(=O)[C@H](CCC(=O)O)NC(=O)[C@@H]1CCCN1C(=O)[C@@H](NC(=O)[C@H](C)NC(=O)[C@H](CC(N)=O)NC(=O)[C@H](CC(=O)O)NC(=O)CNC(=O)[C@@H]1CCCN1C(=O)[C@H](Cc1ccc(O)cc1)NC(=O)[C@@H](NC(=O)[C@@H]1CCCN1C(=O)[C@H](CCC(=O)O)NC(=O)[C@H](CC(C)C)NC(=O)[C@@H]1CCCN1C(=O)[C@H](C)N)C(C)C)[C@@H](C)O)[C@@H](C)O)C(=O)N[C@@H](CCCNC(=N)N)C(=O)N1CCC[C@H]1C(=O)N[C@@H](CCCNC(=N)N)C(=O)N[C@H](N)Cc1ccc(O)cc1 (HELM PEPTIDE1{A.P.L.E.P.V.Y.P.G.D.N.A.T.P.E.Q.M.A.Q.Y.A.A.D.L.R.R.Y.T.N.M.L.I.R.P.R.[N[C@H](Cc1ccc(O)cc1)N[*:1]]}$$$$V2.0)
pKi [1]: < 6.00 | pKi [2]: 7.77 | pKi [3]: < 5.30 | pKi [4]: 9.28 | pKi [5]: 6.36 | pEC50 [6]: 7.96

CC[C@H](C)[C@H](NC(=O)[C@H](Cc1ccc(O)cc1)NC(=O)[C@H](Cc1cnc[nH]1)NC(=O)[C@H](CCCNC(=N)N)NC(C)=O)C(=O)N[C@@H](CC(N)=O)C(=O)N[C@@H](CC(C)C)C(=O)N[C@H](C(=O)N[C@H](C(=O)N[C@@H](CCCNC(=N)N)C(=O)N[C@@H]1[C@H](C(=O)N[C@@H](CCCNC(=N)N)C(=O)N[C@@H](Cc2ccc(O)cc2)C(N)=O)[C@H]1C(=O)OC)[C@@H](C)O)[C@@H](C)CC (HELM PEPTIDE1{[ac].R.H.Y.I.N.L.I.T.R.[COC(=O)[C@H]1[C@H](N[*:1])[C@@H]1C(=O)[*:2]].R.Y.[am]}$$$$V2.0)
pKi [7]: 7.54 | pKi [8]: 6.93

CC[C@H](C)[C@H](NC(=O)[C@H](Cc1ccc(O)cc1)NC(=O)[C@H](Cc1cnc[nH]1)NC(=O)[C@H](CCCN=C(N)N)NC(C)=O)C(=O)N[C@@H](CC(N)=O)C(=O)N[C@@H](CC(C)C)C(=O)N[C@H](C(=O)N[C@H](C(=O)N[C@@H](CCCN=C(N)N)C(=O)N[C@H]1CCC[C@H]1C(=O)N[C@@H](CCCN=C(N)N)C(=O)N[C@@H](Cc1ccc(O)cc1)C(N)=O)[C@@H](C)O)[C@@H](C)CC (HELM PEPTIDE1{[ac].R.H.Y.I.N.L.I.T.R.[O=C([C@@H]1CCC[C@@H]1N[*:1])[*:2]].R.Y.[am]}$$$$V2.0)
pEC50 [9]: 7.39 | pKi [1]: 8.00 | pKi [2]: < 6.30 | pKi [3]: < 6.00 | pKi [5]: < 6.00

CC[C@H](C)[C@H](NC(=O)[C@H](Cc1ccc(O)cc1)NC(=O)[C@H](Cc1cnc[nH]1)NC(=O)[C@H](CCCN=C(N)N)NC(C)=O)C(=O)N[C@@H](CC(N)=O)C(=O)N[C@@H](CC(C)C)C(=O)N[C@@H](CCCN=C(N)N)C(=O)N[C@@H]1[C@H](C(=O)N[C@@H](CCCN=C(N)N)C(=O)N[C@@H]2[C@H](C(=O)N[C@@H](CCCN=C(N)N)C(=O)N[C@@H](Cc3ccc(O)cc3)C(N)=O)[C@H]2C(=O)OC)[C@H]1C(=O)OC (HELM PEPTIDE1{[ac].R.H.Y.I.N.L.R.[COC(=O)[C@H]1[C@H](N[*:1])[C@@H]1C(=O)[*:2]].R.[COC(=O)[C@H]1[C@H](N[*:1])[C@@H]1C(=O)[*:2]].R.Y.[am]}$$$$V2.0)
pKi [7]: 7.30 | pKi [8]: 6.21

CCCC[C@H](NC(=O)[C@H](CC(N)=O)NC(=O)[C@@H](NC(=O)[C@H](Cc1ccc(O)cc1)NC(=O)[C@H](CCCNC(=N)N)NC(=O)[C@H](CCCNC(=N)N)NC(C)=O)[C@@H](C)CC)C(=O)N[C@@H](CC(C)C)C(=O)N[C@H](C(=O)N[C@@H](CCCNC(=N)N)C(=O)N1CCC[C@H]1C(=O)N[C@@H](CCCNC(=N)N)C(=O)N[C@@H](Cc1ccc(O)cc1)C(N)=O)[C@@H](C)O (HELM PEPTIDE1{[ac].R.R.Y.I.N.[Nle].L.T.R.P.R.Y.[am]}$$$$V2.0)
pEC50 [9]: 7.28 | Emax [10]: 70% | pKi [1]: 7.12 | pKi [2]: < 6.00 | pKi [3]: < 6.00 | pKi [5]: 6.55

Ac-RHYINLITRQRY-NH2
pEC50 [11]: 6.28 | pIC50 [12]: 6.88 | pKi [1]: < 6.00 | pKi [2]: < 6.00 | pKi [3]: 5.82 | pKi [5]: < 6.00 | pKi [13]: 8.15 | pKi [14]: 7.99

Ac-RHYINLIYRLRY-NH2
pIC50 [15]: 7.92

Reference: ChEMBL document CHEMBL2439969, “Replacement of Thr32 and Gln34 in the C-terminal neuropeptide Y fragment 25-36 by cis-cyclobutane and cis-cyclopentane β-amino acids shifts selectivity toward the Y(4) receptor” (J Med Chem, 2013)
